One data set has as its system Pseudomonas aeruginosa. Kind of data set: Broth dilution MIC. It counts as cell-based. Particulars: overnight incubation.
The test system of the next data set is Enterobacter cloacae. Nature of the data set: Broth dilution MIC. The data set is classed as cell-based. Particulars: overnight incubation.
In data set [1] the test system is Methicillin Susceptible Staphylococcus aureus. Kind of data set: Broth dilution MIC. Particulars: overnight incubation. The data set is classed as cell-based. On the technique in general: In broth dilution the organism is exposed to a series of concentrations in liquid medium.
The subject of data set [2] is Mycobacterium tuberculosis. Kind of data set: Broth dilution MIC. It counts as cell-based. Particulars: 336 h, end point reading at 2 weeks.
The subject of data set [3] is Methicillin Resistant Staphylococcus aureus. Kind of data set: Broth dilution MIC. The data set is classed as cell-based. To be noted: overnight incubation.
The next data set has as its system Klebsiella pneumoniae. Kind of data set: Broth dilution MIC. It counts as cell-based. Particulars: overnight incubation.
For data set [4], the system named is Actinobacter baumannii 6 M-1b. Kind of data set: Broth dilution MIC. The data set is classed as cell-based. Particulars: overnight incubation.
Data set [5] concerns dehydropepetidase-1 (DHP-1). Particulars: cited from earlier work.
For another data set, the system named is M. tuberculosis H37Rv. The data set is classed as in vivo, BALB/c mice. To be noted: for gross lung lesions: either alone or in combination with rifampin, end of treatment.
Data set [6] deals with T1, LdtMt2 (Mycobacterium tuberculosis, UniProt I6Y9J2). Kind of data set: Nitrocefin hydrolyzing activity after incubation with β-lactams. The data set is classed as biochemical, M. tuberculosis.
T1 sequence (I6Y9J2 35-408 limits assumed): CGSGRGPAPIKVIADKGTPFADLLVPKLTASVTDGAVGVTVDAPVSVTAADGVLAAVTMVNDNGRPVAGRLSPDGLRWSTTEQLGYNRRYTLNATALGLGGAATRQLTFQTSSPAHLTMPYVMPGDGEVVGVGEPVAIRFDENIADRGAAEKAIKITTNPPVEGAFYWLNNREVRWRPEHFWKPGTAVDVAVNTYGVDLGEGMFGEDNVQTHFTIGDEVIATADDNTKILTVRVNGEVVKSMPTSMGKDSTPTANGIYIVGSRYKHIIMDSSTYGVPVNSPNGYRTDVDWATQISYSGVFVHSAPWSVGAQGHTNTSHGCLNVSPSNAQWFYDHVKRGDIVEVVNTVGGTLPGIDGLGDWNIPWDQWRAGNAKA
Data set [7] deals with T1, LdtMt2. It counts as binding, M. tuberculosis. Particulars: for acyl-enzyme adduct mass: UPLC-MS.
Data set [8] has as its target T1, LdtMt2. Nature of the data set: biochemical. Set-up: species or system M. tuberculosis. To be noted: non-linear regression, read-out: kinact/Kapp ratio (converted).
Data set [9] deals with penicillin binding protein DacB2 (Mycobacterium tuberculosis, UniProt I6Y204). Nature of the data set: UPLC-MS analysis of acyl-enzyme adducts.
Sequence of penicillin binding protein DacB2 (I6Y204 23-291): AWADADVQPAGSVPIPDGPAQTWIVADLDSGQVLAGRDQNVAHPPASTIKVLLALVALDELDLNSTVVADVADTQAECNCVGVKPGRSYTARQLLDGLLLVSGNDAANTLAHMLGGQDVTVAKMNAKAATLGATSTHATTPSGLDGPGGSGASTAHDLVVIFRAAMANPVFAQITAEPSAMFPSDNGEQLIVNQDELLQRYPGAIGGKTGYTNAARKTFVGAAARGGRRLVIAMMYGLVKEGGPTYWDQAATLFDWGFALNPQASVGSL
Data set [10] concerns LdtMab1. Kind of data set: Isothermal titration calorimetry. It counts as binding, M. abscessus. (In general: ITC needs no label: the signal is the heat of the interaction.)
The target in data set [11] is T2, LdtMt1 (Mycobacterium tuberculosis, UniProt O53638). The data set is classed as binding, M. tuberculosis.
T2 sequence (O53638 29-251): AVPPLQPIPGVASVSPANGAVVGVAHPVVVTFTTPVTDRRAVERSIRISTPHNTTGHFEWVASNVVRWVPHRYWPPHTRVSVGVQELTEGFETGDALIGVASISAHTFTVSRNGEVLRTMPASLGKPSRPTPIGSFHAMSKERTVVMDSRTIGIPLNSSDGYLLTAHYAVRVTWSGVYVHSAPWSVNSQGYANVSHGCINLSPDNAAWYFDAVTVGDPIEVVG
Data set [12] addresses T1, LdtMt2. The data set is classed as binding, M. tuberculosis.
Data set [13] relates to LdtMab2. The data set is classed as binding, M. abscessus.
Data set [14] has as its system LdtMab2. Nature of the data set: UPLC-HRMS analysis of L,D-transpeptidase/β-lactam adducts. It counts as binding, Mycobacterium abscessus. Particulars: over both the non-carbapenems and carbapenems tested.
The next data set relates to LdtPa. Nature of the data set: UPLC-MS analysis of acyl-enzyme adducts. To be noted: over both the non-carbapenems and carbapenems tested. It counts as binding, Pseudomonas aeruginosa.
Data set [15] addresses T2, LdtMt1. Kind of data set: UPLC-MS analysis of acyl-enzyme adducts. The data set is classed as binding, M. tuberculosis.
Another data set relates to LdtKp. Nature of the data set: UPLC-HRMS analysis of L,D-transpeptidase/β-lactam adducts. To be noted: over both the non-carbapenems and carbapenems tested. The data set is classed as binding, Klebsiella pneumoniae.
Data set [16] concerns LdtMab1. Nature of the data set: UPLC-MS analysis of acyl-enzyme adducts. The data set is classed as binding, Mycobacterium abscessus. To be noted: over both the non-carbapenems and carbapenems tested.
A further data set has as its system LdtCl. Nature of the data set: UPLC-HRMS analysis of L,D-transpeptidase/β-lactam adducts. It counts as binding, Enterobacter cloacae. Particulars: over both the non-carbapenems and carbapenems tested.
Setting [17] is: Enterobacter cloacae, read-out: MIC.
[18] abbreviates: following incubation with β-lactam.
Setting [19] is: equimolar mixture of faropenem, doripenem, biapenem and tebipenem.

Where two headings read alike, the source gives them in different places.

Take `C[C@@H](O)C1C(=O)N2C(C(=O)[O-])=C(SC3CN(C4=NCCS4)C3)SC12.[K+]` (stereo in doubt) [Compound T405, Potassium (5S,6R)-3-((1-(4,5-dihydrothiazol-2-yl)azetidin-3-yl)thio)-6-((R)-1-hydroxyethyl)-7-oxo-4-thia-1-azabicyclo[3.2.0]hept-2-ene-2-carboxylate]: the minimum inhibitory concentration (MIC) with Pseudomonas aeruginosa lay in the range of 4 to 8 µg/mL; with Enterobacter cloacae (setting [17]) it was 0.25 to 0.5 µg/mL; in [1], 0.03 to 0.06 µg/mL; in [2], 0.5 to 1 µg/mL; in [3] it was 0.03 to 0.06 µg/mL; against Klebsiella pneumoniae it was 0.125 to 0.25 µg/mL. Besides, in [4], the minimal inhibitory concentration (MIC) lay within 4 to 8 µg/mL.
With `C[C@@H](O)[C@H]1C(=O)N2C(C(=O)[O-])=C(SC3CNC(CNS(N)(=O)=O)C3)S[C@H]12.[K+]` (stereo in doubt) [Compound T409, Potassium (5R,6S)-6-((R)-1-hydroxyethyl)-7-oxo-3-(((3R,5R)-5-((sulfamoylamino)methyl)pyrrolidin-3-yl)thio)-4-thia-1-azabicyclo[3.2.0]hept-2-ene-2-carboxylate], the minimal inhibitory concentration (MIC) in [2] lay in the range of 0.5 to 1 µg/mL.
In the case of `C[C@@H](O)[C@H]1C(=O)N2C(C(=O)[O-])=C(SC3CNC(C(=O)N(C)C)C3)S[C@H]12.[K+]` (stereo in doubt) [Compound T410, Potassium (5R,6S)-3-(((3R,5R)-5-(dimethylcarbamoyl)pyrrolidin-3-yl)thio)-6-((R)-1-hydroxyethyl)-7-oxo-4-thia-1-azabicyclo[3.2.0]hept-2-ene-2-carboxylate], the minimal inhibitory concentration (MIC) against Pseudomonas aeruginosa was in the range of 0.5 to 1 µg/mL; in the data set with Enterobacter cloacae (setting [17]), 1 to 2 µg/mL; in [2] it was 8 to 16 µg/mL; in the data set on Klebsiella pneumoniae, 2 to 4 µg/mL; in data set [4], 0.5 to 1 µg/mL.
Regarding `CCCSC1=C(C(=O)[O-])N2C(=O)[C@H]([C@@H](C)O)[C@H]2S1.[K+]` [Compound T406, Potassium (5R,6S)-6-((R)-1-hydroxyethyl)-3-propylthio-7-oxo-4-thia-1-azabicyclo[3.2.0]hept-2-ene-2-carboxylate], the minimum inhibitory concentration (MIC) is 4 to 8 µg/mL in the data set with Enterobacter cloacae (setting [17]), 0.5 to 1 µg/mL in data set [2], 0.25 to 0.5 µg/mL against Klebsiella pneumoniae and 4 to 8 µg/mL in data set [4].
As to `C[C@@H](O)[C@H]1C(=O)N2C(C(=O)[O-])=C(SCCO)S[C@H]12.[K+]` [Compound T407, Potassium (5R,6S)-6-((R)-1-hydroxyethyl)-3-((2-hydroxyethyl)thio)-7-oxo-4-thia-1-azabicyclo[3.2.0]hept-2-ene-2-carboxylate], the MIC in data set [2] lay in the range of 2 to 4 µg/mL; against Klebsiella pneumoniae it was 8 to 16 µg/mL.
`COC(=O)CCSC1=C(C(=O)[O-])N2C(=O)[C@H]([C@@H](C)O)[C@H]2S1.[K+]` [Compound T408, Potassium (5R,6S)-6-((R)-1-hydroxyethyl)-3-((3-methoxy-3-oxopropyl)thio)-7-oxo-4-thia-1-azabicyclo[3.2.0]hept-2-ene-2-carboxylate]: the MIC was 4-8 g/mL in the data set on Enterobacter cloacae (unit as printed for T408), 0.5 to 1 µg/mL in data set [2], 8 to 16 µg/mL in the data set with Klebsiella pneumoniae and 16 to 32 µg/mL in [4].
For the compound `C[C@@H](O)[C@H]1C(=O)N2C(C(=O)[O-])=C(SC3Cn4cnc[n+]4C3)[C@H](C)[C@H]12` (stereo partly drawn) [biapenem], the “inactivation by DHP-1” value in data set [5] was “resistant to inactivation by DHP-1”. For the same compound, in the data set with M. tuberculosis H37Rv, the gross lung lesions entry was “prevented the development of gross lung lesions”. Also, the “activity on bacterial load (CFUs) in the lungs” value in the data set on M. tuberculosis H37Rv (mouse, in vivo) is given as “bacteriostatic activity”. Further, the “inhibition of nitrocefin hydrolysis” value at LdtMt2 [6] (setting [18]) is “robustly inhibited”. In addition, the adduct formation result at LdtMt2 [7] is “Stable adducts could be detected”. Also, the kinact/KI at LdtMt2 [8] was 3830 M⁻¹ s⁻¹.
As to `CC1(C)S[C@@H]2[C@H](NC(=O)C(C(=O)O)c3ccccc3)C(=O)N2[C@H]1C(=O)O` (stereo partly drawn) [carbenicillin], on LdtMt2 [7], the adduct formation entry is reported as “failed to bind”. In [9] (UPLC-MS), the adduct mass entry is listed as “+379 Da”.
In the case of `CC(=O)OCC1=C(C(=O)O)N2C(=O)[C@@H](NC(=O)Cc3cccs3)[C@H]2SC1` [cephalothin], the “inhibition of nitrocefin hydrolysis” value at LdtMt2 [6] is “comparable inhibitory activity”.
For `C[C@@H](O)[C@H]1C(=O)N2C(C(=O)O)=C(S[C@@H]3CN[C@H](CNS(N)(=O)=O)C3)[C@H](C)[C@H]12` [doripenem], the “inhibition of nitrocefin hydrolysis” value on LdtMt2 [6] (setting [18]) is on record as “robustly inhibited”. The compound further registered an acyl-enzyme adduct mass at LdtMt2 [7] of 123 Da.
In the case of `C[C@@H](O)[C@H]1C(=O)N2C(C(=O)O)=C([C@H]3CCCO3)S[C@H]12` [faropenem], the ITC binding result in the data set with LdtMab1 [10] is recorded as “Binding”; on LdtMt1 [11] it was “single-modality binding”; at LdtMt2 [12] it was “single-modality binding”; in the data set on LdtMab2 [13] it was “Binding”. The “preferential reaction in β-lactam mixtures” value with LdtMab2 [14], in the data set with LdtPa, in the data set with LdtKp, in the data set on LdtMab1 [16] and in the data set with LdtCl was “preferentially reacted with faropenem” throughout. The gross lung lesions entry in the data set with M. tuberculosis H37Rv is “prevented the development of gross lung lesions”. The “inhibition of nitrocefin hydrolysis” value against LdtMt2 [6] (setting [18]) is “robustly inhibited”. Further, the acyl-enzyme adduct mass entry on LdtMt2 [7] and at LdtMt1 [15] (UPLC-MS) was “+86 Da” throughout. The “adduct detected in competition assay” value on LdtMt2 [7] (setting [19]) and on LdtMt1 [15] (setting [19]) was “the only adduct detected” each time. Moreover, the “species detected in competition assay” value in data set [9] is given as “the only species detected”.
As for `C[C@@H](O)[C@H]1C(=O)N2C(C(=O)O)=C(SC3CN(C4=NCCS4)C3)[C@H](C)[C@H]12` [tebipenem], the ITC binding result in the data set with LdtMab1 [10] is given as “Binding”; on LdtMt1 [11] it was “single-modality binding”; at LdtMt2 [12], “single-modality binding”; in the data set with LdtMab2 [13], “Binding”.

What is called MIC is the lowest concentration that inhibits growth of the organism.
